ChEMBL document CHEMBL5214928, “DEAD-Box Helicase DDX3X as a Host Target against Emerging Viruses: New Insights for Medicinal Chemical Approaches” (J Med Chem, 2022)

Key:
[1] = target: T1, ATP-dependent RNA helicase DDX3X (Homo sapiens, UniProt O00571); test: Inhibition of recombinant DDX3X (unknown origin) helicase activity using 6-FAM-labeled dsRNA as substrate incubated for 30 mins by fluorescence based assay
[2] = target: T1, ATP-dependent RNA helicase DDX3X; test: Binding affinity to DDX3X (unknown origin) assessed as inhibition constant
[3] = Half life in mouse administered intraperitoneally; type: ADME; details: in vivo, route ip
[4] = target: T1, ATP-dependent RNA helicase DDX3X; test: Inhibition of DDX3X (unknown origin) helicase activity
[5] = test system: Human immunodeficiency virus 1; test: Antiviral activity against recombinant HIV-1 infected in CD4+ human HeLa cells assessed as reduction in viral replication; type: functional, organism-based; details: Human immunodeficiency virus 1, HeLa
HeLa = test: Cytotoxicity against human HeLa cells assessed as reduction in cell viability incubated for 72 hrs with replacement of medium containing compound for every 24 hrs by MTS based Cell Titer 96 viability assay; type: functional
[6] = Selectivity index, ratio of CC50 for human HeLa cells to EC50 for recombinant HIV-1 infected in CD4+ human HeLa cells; type: toxicity, cell-based; details: read-out: Ratio CC50/EC50
[7] = Cytotoxicity against African green monkey Vero E6 cells assessed as reduction in cell viability; type: toxicity, cell-based, Vero C1008; details: chlorocebus sabaeus
SARS-CoV-2 = test: Antiviral activity against SARS-CoV-2 isolate 2019-nCoV/Italy-INMI1 infected in African green monkey Vero E6 cells assessed as reduction in viral replication at MOI of 0.01 incubated for 5 days by qRT-PCR analysis; type: functional, organism-based; details: Severe acute respiratory syndrome coronavirus 2, 2019-nCoV/Italy-INMI1, Vero C1008, 120 h
H9 = test: Cytotoxicity against human H9 cells assessed as reduction in cell viability incubated for 72 hrs by luciferase based assay; type: functional
[8] = Selectivity index, ratio of CC50 for human H9 cells to EC50 for HIV-1 NL4-3 infected in human H9 cells; type: toxicity, cell-based; details: read-out: Ratio CC50/EC50
[9] = test system: Human immunodeficiency virus 1; test: Antiviral activity against HIV-1 NL4-3 infected in human H9 cells assessed as reduction in viral replication at MOI of 0.03 measured after 48 hrs by Bright-Glo Luciferase Assay; type: functional, organism-based; details: Human immunodeficiency virus 1, NL4-3, H9, 48 h

T1 sequence (O00571 whole entry): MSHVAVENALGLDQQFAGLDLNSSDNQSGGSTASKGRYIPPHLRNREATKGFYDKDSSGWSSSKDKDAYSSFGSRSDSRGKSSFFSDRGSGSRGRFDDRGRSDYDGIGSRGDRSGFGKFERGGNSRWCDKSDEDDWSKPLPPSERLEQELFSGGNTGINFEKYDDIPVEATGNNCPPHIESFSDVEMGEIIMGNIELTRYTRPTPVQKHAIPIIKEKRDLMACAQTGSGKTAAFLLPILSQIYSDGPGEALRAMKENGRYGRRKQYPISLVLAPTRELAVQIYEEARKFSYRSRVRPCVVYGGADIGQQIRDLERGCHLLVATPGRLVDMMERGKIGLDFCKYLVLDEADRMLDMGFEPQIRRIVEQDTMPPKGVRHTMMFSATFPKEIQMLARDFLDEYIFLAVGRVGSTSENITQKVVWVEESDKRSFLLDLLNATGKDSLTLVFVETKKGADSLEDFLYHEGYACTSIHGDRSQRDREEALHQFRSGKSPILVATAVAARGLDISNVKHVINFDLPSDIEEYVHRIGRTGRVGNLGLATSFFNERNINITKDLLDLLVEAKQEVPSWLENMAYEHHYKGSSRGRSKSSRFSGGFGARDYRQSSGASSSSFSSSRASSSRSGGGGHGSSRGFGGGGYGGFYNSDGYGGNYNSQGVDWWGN

## O=C(O)c1cc(Nc2nc3ccccc3[nH]2)ccc1O
[1]
  IC50: 0.2 µM

## Cc1ccc(Nc2nc(N/N=C/c3ccccc3O)nc(NN3CCOCC3)n2)cc1Cl
[2]
  Ki: 1.6 µM

## CCCCc1cn(-c2ccc(NC(=O)Nc3ccccc3C(F)(F)F)cc2)nn1
[3]
  half-life: 5 h

## CCCCc1cn(-c2ccc(NC(=O)Nc3ccccc3OC3CCCC3)cc2)nn1
[4]
  IC50: 0.14 µM

## CC(C)Cc1cn(-c2ccc(NC(=O)Nc3ccccc3F)cc2)nn1
[4]
  IC50: 0.12 µM

## Cc1cccc(NC(=O)CCN2C(=O)/C(=C/c3ccccc3O)SC2=S)c1
[2]
  Ki: 97 µM

## Oc1ccccc1/C=N/Nc1nc(NCc2ccccc2)nc(NN2CCOCC2)n1
[2]
  Ki: 0.6 µM

## O=C1S/C(=C\c2c(NCCO)nc3ccccn3c2=O)C(=O)N1CCc1ccccc1
[2]
  Ki: 0.2 µM

## CCN(CC)Nc1nc(N/N=C/c2ccccc2O)nc(Nc2ccccc2)n1
[2]
  Ki: 0.1 µM

## CC(=O)Nc1ccc(/C=N/Nc2nc(Nc3ccccc3)nc(Nc3ccccc3)n2)cc1
[5]
  EC50: 2 µM
[2]
  Ki: 0.3 µM
HeLa
  CC50: 10 µM
[6]
  selectivity ratio: 5

## O=C(CCN1C(=O)/C(=C/c2cccc(F)c2)SC1=S)Nc1ccccc1O
[2]
  Ki: 7.6 µM

## CCCCc1cn(-c2ccc(NC(=O)Nc3ccccc3F)cc2)nn1
[4]
  IC50: 0.6 µM

## O=C(CCN1C(=O)/C(=C/c2ccccc2O)SC1=S)Nc1cc(F)cc(F)c1
[2]
  Ki: 0.5 µM

## CCCCc1cn(-c2ccc(NC(=O)Nc3ccc(C)nc3)cc2)nn1
[4]
  IC50: 1.5 µM

## CC(=O)Nc1ccc(/C=N/Nc2nc(NCc3ccccc3)nc(Nc3ccccc3)n2)cc1
[2]
  Ki: 0.5 µM

## CC(=O)Nc1ccc(/C=N/Nc2nc(Nc3ccccc3)nc(NN3CCOCC3)n2)cc1
[2]
  Ki: 2.2 µM

## O=C(CCN1C(=O)/C(=C/c2ccccc2O)SC1=S)Nc1cccc(F)c1
[5]
  EC50: 7.5 µM
[2]
  Ki: 0.3 µM
HeLa
  CC50: 50 µM
[7]
  CC50: > 100 µM
SARS-CoV-2
  EC50: < 5 µM
[6]
  selectivity ratio: 7

## CC(C)Cc1cn(-c2ccc(NC(=O)Nc3cccc(F)c3)cc2)nn1
[4]
  IC50: 0.2 µM

## O=C(NCCN1C(=O)/C(=C/c2ccccc2O)SC1=S)c1cccc(F)c1
[2]
  Ki: 4.3 µM

## Oc1ccccc1/C=N/Nc1nc(NCc2ccc(F)cc2)nc(NN2CCOCC2)n1
[2]
  Ki: 0.7 µM

## O=C(O)c1ccccc1C(=O)Nc1nnc(-c2ccc(O)cc2)s1
H9
  CC50: 125 µM
[8]
  selectivity ratio: 45
[9]
  EC50: 2.8 µM
